Series [1] can be described thus: in vitro. The following applies: human.
Series [2] in a line: in vitro. The following applies: African green monkey, Vero (African green monkey kidney) cells.
Series [3] in a line: in vitro. The note with it: human, uninfected PHA-stimulated human PBM cells.
The next series concerns HIV-1/LAI. The class given is cell-based. The following applies: for EC50: read-out: Anti-HIV-1 activity in human PBM cells EC50, HIV-1/LAI, median effect method; for activity against HIV-1 (in words): human PBM cells.
The next series deals with HIV-1. The following applies: ref De Corte 2005; Pauwels et al. 1993; cited from earlier work.
A further series has as its system human PBM cells. The note with it: read-out: Cytotoxicity IC50 PBM; uninfected PHA-stimulated human PBM cells.
Series [4] relates to CEM (T-lymphoblastoid cell line).
Series [5] concerns Vero (African green monkey kidney) cells. The following applies: read-out: Cytotoxicity IC50 Vero.

“Also recorded” adds a separate entry of the source. Bounds are passed on as bounds.

Consider `Cc1ccc(N2C(=O)CCC2(CN)c2ccccc2)cc1` (stereo not shown) [Compound 5a, 5-Aminomethyl-1-(4-methylphenyl)-5-phenyl-2-pyrrolidinone], for which the 50% inhibitory concentration (IC50) in “in vitro [1]” was 53.6 µM; in the series “in vitro [2]”, above 100 µM; in the series “in vitro [3]” it was 54.1 µM.
In the case of `Cc1ccc(NC(C#N)c2ccc(OCc3ccc(Cl)cc3Cl)cc2)cc1` (stereo not shown) [Compound 2h, 2-[4-(2,4-Dichlorobenzyloxy)phenyl]-2-(4-toluidino)acetonitrile], the concentration for half-maximal inhibition (IC50) in the series “in vitro [1]” came to 11.7 µM; in “in vitro [2]”, 39.7 µM; in “in vitro [3]”, 15 µM. Also, the EC50 with HIV-1/LAI was 3.1 µM.
In the case of `Cc1ccc(N2C(=O)CCC2(C#N)c2ccc(OCc3ccccc3)cc2)cc1` (stereo not shown) [Compound 3g, 2-(4-Benzyloxyphenyl)-1-(4-methylphenyl)-5-oxo-2-pyrrolidinecarbonitrile], the IC50 in “in vitro [1]” is 30.3 µM; in “in vitro [2]” it was 53.9 µM; in “in vitro [3]”, above 100 µM.
Turning to `CC(=O)c1ccc(C)cc1NC(C(N)=O)c1c(Cl)cccc1Cl` (stereo not shown) [loviride], the “inhibitory concentration relative to the cytotoxic concentration (fold less)” value in the series on HIV-1 is 10,000 fold.
Consider `Cc1ccc(N2C(=O)CCC2(C#N)c2ccc(OC(C)C)cc2)cc1` (stereo not shown) [Compound 3e, 2-(4-Isopropoxyphenyl)-1-(4-methylphenyl)-5-oxo-2-pyrrolidinecarbonitrile], for which the IC50 in “in vitro [1]” was 17 µM; in the series “in vitro [2]” it was 46.5 µM; in the series “in vitro [3]” it was above 100 µM.
Turning to `Cc1ccc(N2C(=O)CCC2(C#N)c2ccc(OCc3ccc(Cl)cc3Cl)cc2)cc1` (stereo not shown) [Compound 3h, 2-[4-(2,4-Dichlorobenzyloxy)phenyl]-1-(4-methylphenyl)-5-oxo-2-pyrrolidinecarbonitrile], the results for the half-inhibitory concentration (IC50) in the series “in vitro [1]”, in “in vitro [2]” and in the series “in vitro [3]” were 6.6 µM, 21.8 µM and 9.7 µM, respectively.
Take `Cc1cc(C)cc(NC(C(N)=O)c2c(Cl)cccc2Cl)c1` (stereo not shown) [Compound 4, 2-(2,6-Dichlorophenyl)-2-(3,5-dimethylanilino)acetamide]: the 50% inhibitory concentration (IC50) was 5.8 µM in the series “in vitro [1]”, 68.7 µM in “in vitro [2]” and 6.1 µM in the series “in vitro [3]”. In addition, the “activity against HIV-1 (in words)” value with HIV-1/LAI is “very potent; also recorded: very active”.
Regarding `Cc1cn([C@H]2C[C@H](N=[N+]=[N-])[C@@H](CO)O2)c(=O)[nH]c1=O` [AZT, 3′-Azido-2′,3′-dideoxythymidine, reference compound], in the series with human PBM cells, the 50% inhibitory concentration (IC50) was above 100 µM.
Turning to `Cc1ccc(N2C(=O)CCC2(CN)c2ccc(OCc3ccccc3)cc2)cc1` (stereo not shown) [Compound 5f, 5-Aminomethyl-5-(4-benzyloxyphenyl)-1-(4-methylphenyl)-2-pyrrolidinone], the half-maximal inhibitory concentration (IC50) in “in vitro [1]” stood at 33.7 µM; in “in vitro [2]”, 12.3 µM; in “in vitro [3]” it was 15.9 µM.
For the compound `NCC1(c2ccccc2)CCCN1C(=O)c1ccc(Br)cc1` (stereo not shown) [Compound 10], the results for the concentration for half-maximal inhibition (IC50) (with human PBM cells; in series [4]; in series [5]) were above 100 µM, 96.1 µM and above 100 µM, respectively. In the series with HIV-1/LAI, the “activity against HIV-1 (in words)” value was “no inhibition”. Further, the EC50 in the series with HIV-1/LAI is above 100 µM. Further, the EC90 in the series on HIV-1/LAI (read-out: Anti-HIV-1 activity in human PBM cells EC90, HIV-1/LAI, median effect method) was above 100 µM.

As a reminder, the IC50 is the concentration that gives 50% inhibition.

The record behind these values is article PMC8301260 (Medicinal chemistry research : an international journal for …, 2016).
